How the values were obtained:
Details in all cases: exposure time: 90 min
1518 [1] = donor line of iPSC-derived cardiomyocytes; assay: POD (EC05) for increase in beat frequency (positive chronotrope) vs vehicle; higher = less potent (higher point of departure)
Outline: (§1)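 Cardiomyocytes derived from human iPSCs of 16 donors were grown 14 days in gelatin-coated 384-well plates, loaded 2 h with a fluorescent Ca2+ dye, then exposed for 90 min at 37 °C to final concentrations of 0.1, 1, 10 and 100 µM in 0.5% DMSO. A FLIPR Tetra recorded Ca2+ flux at 8 frames/s for 100 s before and after exposure. Points of departure for each donor were derived by hierarchical Bayesian Hill fitting of vehicle-normalised beat frequency, decay-to-rise ratio or peak frequency. The thresholds applied were a 5% change, or a 95% loss for peak frequency.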

1535 [2] = donor line of iPSC-derived cardiomyocytes; assay: as above
Outline: as §1

1531 [3] = donor line of iPSC-derived cardiomyocytes; assay: as above
Outline: as §1

20084 [4] = donor line of iPSC-derived cardiomyocytes; assay: as above
Outline: as §1

1118 = donor line of iPSC-derived cardiomyocytes; assay: POD (EC95) for loss of peak frequency (asystole) vs vehicle; higher = less potent (higher point of departure)
Protocol: (§2)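 Human iPSC-derived cardiomyocytes from 16 donors were exposed for 90 min at 37 °C to each PFAS at 0.1, 1, 10 and 100 µM in 0.5% DMSO, 384-well plates. Kinetic Ca2+ flux (FLIPR) and Hoechst nuclei counts were normalised to vehicle wells and fitted with a hierarchical Bayesian Hill model to give donor-specific PODs: EC05 for beat-rate increase or decrease and for decay-to-rise ratio increase (QT proxy), EC95 for peak-frequency loss (asystole), EC10 for total cell number loss. 0.03 µM is the lower bound.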

30145 = donor line of iPSC-derived cardiomyocytes; assay: as above
Protocol: as §2

11235 = donor line of iPSC-derived cardiomyocytes; assay: as above
Protocol: as §2

1309 = donor line of iPSC-derived cardiomyocytes; assay: as above
Protocol: as §2

1518 [5] = assay: as above
Protocol: as §2

20032 = donor line of iPSC-derived cardiomyocytes; assay: as above
Protocol: as §2

1535 [6] = assay: as above
Protocol: as §2

1531 [7] = assay: as above
Protocol: as §2

20084 [8] = assay: as above
Protocol: as §2

30171 = donor line of iPSC-derived cardiomyocytes; assay: as above
Protocol: as §2

1516 = donor line of iPSC-derived cardiomyocytes; assay: as above
Protocol: as §2

1434 = donor line of iPSC-derived cardiomyocytes; assay: as above
Protocol: as §2

1083 = donor line of iPSC-derived cardiomyocytes; assay: as above
Protocol: as §2

1368 = donor line of iPSC-derived cardiomyocytes; assay: as above
Protocol: as §2

1392 = donor line of iPSC-derived cardiomyocytes; assay: as above
Protocol: as §2

1565 = donor line of iPSC-derived cardiomyocytes; assay: as above
Protocol: as §2

SMILES	POD vs vehicle 1518 [1] [µM]	POD vs vehicle 1535 [2] [µM]	POD vs vehicle 1531 [3] [µM]	POD vs vehicle 20084 [4] [µM]	POD vs vehicle 1118 [µM]	POD vs vehicle 30145 [µM]	POD vs vehicle 11235 [µM]	POD vs vehicle 1309 [µM]	POD vs vehicle 1518 [5] [µM]	POD vs vehicle 20032 [µM]	POD vs vehicle 1535 [6] [µM]	POD vs vehicle 1531 [7] [µM]	POD vs vehicle 20084 [8] [µM]	POD vs vehicle 30171 [µM]	POD vs vehicle 1516 [µM]	POD vs vehicle 1434 [µM]	POD vs vehicle 1083 [µM]	POD vs vehicle 1368 [µM]	POD vs vehicle 1392 [µM]	POD vs vehicle 1565 [µM]
O=C(O)C=C(C(F)(F)F)C(F)(F)F [3,3-Bis(trifluoromethyl)-2-propenoic_acid]	> 100	> 100	> 100	> 100	> 100	> 100	> 100	> 100	> 100	> 100	> 100	> 100	> 100	> 100	> 100	> 100	> 100	> 100	> 100	> 100
O=C(O)C=CC(F)(C(F)(F)F)C(F)(F)F [3-(Perfluoroisopropyl)-2-propenoic_acid]	> 100	> 100	> 100	> 100	> 100	> 100	> 100	> 100	> 100	> 100	> 100	> 100	> 100	> 100	> 100	> 100	> 100	> 100	> 100	> 100
O=C(O)CCC(F)(F)C(F)(F)C(F)(F)C(F)(F)C(F)(F)C(F)(F)C(F)(F)F [3-Perfluoroheptylpropanoic_acid]	> 100	> 100	> 100	> 100	59.8	> 100	84.8	> 100	> 100	> 100	> 100	> 100	> 100	> 100	> 100	90.9	> 100	> 100	> 100	> 100
O=C(O)CCC(F)(F)C(F)(F)C(F)(F)F [3:3 Fluorotelomer carboxylic acid]	> 100	> 100	> 100	> 100	> 100	> 100	> 100	> 100	> 100	> 100	> 100	> 100	> 100	> 100	> 100	> 100	> 100	> 100	> 100	> 100
O=C(CC(=O)C(F)(F)C(F)(F)F)C(F)(F)F [3H,3H-Perfluoro-2,4-hexanedione]	> 100	> 100	> 100	> 100	80.5	> 100	87.4	> 100	> 100	> 100	> 100	> 100	> 100	79.9	> 100	78.3	> 100	> 100	> 100	> 100
OCCC(F)(F)C(F)(F)C(F)(F)C(F)(F)F [4:2 Fluorotelomer alcohol]	> 100	> 100	> 100	> 100	89.1	> 100	> 100	> 100	> 100	> 100	> 100	> 100	> 100	> 100	> 100	> 100	> 100	> 100	> 100	> 100
O=S(=O)(O)CCC(F)(F)C(F)(F)C(F)(F)C(F)(F)F [4:2 Fluorotelomer sulfonic acid]	> 100	> 100	> 100	> 100	> 100	> 100	> 100	> 100	> 100	> 100	> 100	> 100	> 100	> 100	> 100	> 100	> 100	> 100	> 100	> 100
OCC(F)(F)C(F)(F)C(F)(F)C(F)(F)C(F)(F)C(F)(F)F [6:1 Fluorotelomer alcohol]	> 100	> 100	> 100	> 100	1.75	> 100	70.2	> 100	> 100	> 100	> 100	> 100	> 100	80.8	> 100	75.4	84.3	> 100	> 100	> 100
OCCC(F)(F)C(F)(F)C(F)(F)C(F)(F)C(F)(F)C(F)(F)F [6:2 Fluorotelomer alcohol]	> 100	5.24	> 100	> 100	> 100	> 100	> 100	> 100	> 100	> 100	> 100	> 100	> 100	> 100	> 100	> 100	> 100	> 100	> 100	> 100
O=S(=O)(O)CCC(F)(F)C(F)(F)C(F)(F)C(F)(F)C(F)(F)C(F)(F)F [6:2 Fluorotelomer sulfonic acid]	> 100	> 100	> 100	> 100	> 100	> 100	> 100	> 100	> 100	> 100	> 100	> 100	> 100	> 100	> 100	> 100	> 100	> 100	> 100	> 100
OCCC(F)(F)C(F)(F)C(F)(F)C(F)(F)C(F)(F)C(F)(F)C(F)(F)C(F)(F)F [8:2 Fluorotelomer alcohol]	> 100	> 100	> 100	> 100	> 100	> 100	> 100	> 100	> 100	> 100	> 100	> 100	> 100	> 100	> 100	> 100	> 100	> 100	> 100	> 100
O=S(=O)(O)CCC(F)(F)C(F)(F)C(F)(F)C(F)(F)C(F)(F)C(F)(F)C(F)(F)C(F)(F)F [8:2 Fluorotelomer sulfonic acid]	> 100	> 100	> 100	> 100	> 100	89.3	> 100	> 100	> 100	> 100	> 100	16.5	> 100	> 100	> 100	> 100	> 100	> 100	> 100	> 100
O=C(O)C(F)(F)C(F)(F)C(F)(F)C(F)(F)C(F)(F)C(F)(F)C(F)(F)C(F)(F)Cl [9-Chloro-perfluorononanoic_acid]	> 100	> 100	> 100	> 100	84.3	> 100	14.7	> 100	> 100	> 100	> 100	> 100	> 100	44.1	90.9	87.4	> 100	> 100	> 100	> 100
O=P(O)(O)CCC(F)(F)C(F)(F)C(F)(F)C(F)(F)C(F)(F)C(F)(F)C(F)(F)C(F)(F)F [((Perfluorooctyl)ethyl)phosphonic_acid]	> 100	> 100	> 100	> 100	> 100	> 100	> 100	> 100	> 100	> 100	> 100	> 100	> 100	> 100	> 100	> 100	> 100	> 100	> 100	> 100
O=C([O-])C(F)(F)C(F)(F)C(F)(F)C(F)(F)C(F)(F)C(F)(F)C(F)(F)F.[NH4+] [Ammonium_perfluorooctanoate]	> 100	> 100	> 100	> 100	> 100	> 100	72.4	> 100	> 100	> 100	> 100	> 100	> 100	> 100	> 100	> 100	> 100	> 100	> 100	> 100
OCC(F)(F)C(F)(F)C(F)(F)C(F)(F)C(F)(F)C(F)F [Dodecafluoroheptanol]	> 100	> 100	> 100	> 100	7.54	47.9	48.1	50.3	38.1	47.7	46.3	42.6	48.6	51.8	48.2	45.8	38.1	35.7	45	50.6
OCC(F)(F)C(F)(F)C(F)(F)F [Heptafluorobutanol]	> 100	> 100	> 100	> 100	> 100	> 100	> 100	> 100	> 100	> 100	> 100	> 100	> 100	> 100	> 100	> 100	> 100	> 100	> 100	> 100
NC(=O)C(F)(F)C(F)(F)C(F)(F)F [Heptafluorobutyramide]	> 100	> 100	> 100	> 100	> 100	> 100	> 100	> 100	> 100	> 100	> 100	> 100	> 100	> 100	> 100	> 100	> 100	> 100	> 100	> 100
OCC(F)(F)C(F)(F)C(F)(F)CO [Hexafluoroamylene_glycol]	> 100	> 100	> 100	> 100	> 100	> 100	> 100	> 100	> 100	> 100	> 100	> 100	> 100	> 100	> 100	> 100	> 100	> 100	> 100	> 100

From the supplement of paper PMC11368000
